Reference: paper doi:10.1101/2025.03.14.643303, “A genome-scale drug discovery pipeline uncovers new therapeutic targets and a unique p97 allosteric binding site in Schistosoma mansoni” (bioRxiv, 2025)
“Also recorded” adds a separate entry of the source. Like-named read-outs stand apart in the source and are kept apart here.

What was measured:
HepG2 cells = assay: HepG2 cytotoxicity assay (Cell Titer Glo 2.0); assay type: cell-based, human
Protocol: HepG2 cells (ATCC) were plated at 2500 cells/well in 50 μL/well, dispersing cells using a 25g needle to break up clumps prior to plating. Plates were incubated for 24hr at 37C, 5% CO2. Following 24hr, 50 μL media containing 0.6% DMSO was added to a set of wells on one plate. The plate and Cell Titer Glo 2.0 reagent were brought to RT. A T=0 read was taken by adding 40 μL reagent/well, rocking the plate at 100 rpm for 2 min, then reading luminescence ~10 min later. […] 50 μL 2x concentrated compound was added to wells containing cells in 50 μL 24 hr after plating. Concentrations were tested in triplicate at following values: 30, 10, 3.3, 1.1, 0.37, 0.12, and 0.04 μM. Plates were incubated for 72 hr at 37C, 5% CO2. Following equilibration to room temperature, 40 μL undiluted reagent was added to each well, the plate rocked at 100 rpm for 2 min and then read for luminescent signal ~10 min later.
Values are plotted in excel and the 50% point determined by interpolation. Values were revisualized in Prism.

[1] = system: K48 polyubiquitinated proteins; assay: Western blot of drug-treated worm lysate with K48-linkage specific polyubiquitin antibody; assay type: cell-based, Schistosoma mansoni; conditions: worm lysate after 48 hr of treatment
Protocol: For drug treatment studies, 10 male adult worms (single or paired with females) were supplemented with either 0.1% DMSO or inhibitor (0.1% DMSO final). […]. After 48 hr, male parasites were separated from females using 0.25% tricaine in Basch Media 169, flash frozen in liquid nitrogen, and stored at −80°C until further processing. Male worm samples were homogenized with a pestle in 50 μL lysis buffer containing 2X sample buffer [0.471 M Tris (pH 6.7 with phosphoric acid), 20% glycerol, 5% SDS), protease inhibitor cocktail (Roche, cOmplete Mini, EDTA-free Tablets) and 10 mM DTT. The lysates were then sonicated on high for 5 min (30 sec on, 30 sec off) using a Bioruptor UCD-200. Lysates were centrifuged for 5 min at 10,000 g to remove debris. Total protein was measured using the Detergent Compatible Bradford Assay (Pierce). 50 μg of protein samples denatured in SDS Sample buffer (95°C for 5 min) were separated on a Bio-Rad 4–20% TGX Stain-Free gel along with Precision Plus Protein Dual Color Standards (Bio-Rad) as a marker. Proteins were then transferred to a nitrocellulose membrane (Bio-Rad). The membrane was blocked in a 1:5 solution of Li-Cor Odyssey Blocking buffer in PBST for 1 hr before being immunoblotted overnight at 4°C with 1:500 K48-linkage Specific Polyubiquitin Antibody (Cell Signaling Technology, 4289S) and 0.01 μg/mL mouse anti-actin antibody (1:10,000) (Developmental Studies Hybridoma Bank, JLA20) diluted in a 1:5 solution of Li-Cor Odyssey Blocking buffer in PBST. The membrane was washed 3x in TBST and then incubated in 1:5 Li-Cor Odyssey Blocking buffer containing the secondary antibodies (1:10,000 Li-Cor, 925–68071, goat anti-rabbit IRDye 680 RD, and 1:20,000 Li-Cor, 925–32280, goat anti-mouse IgM IRDye 800CW) for 1 hr at RT. The blot was washed in TBST 3x before being imaged on a LiCor Odyssey Infrared Imager.

H. sapiens p97 (P55072) = molecular target: T1, H. sapiens p97 (P55072) (Homo sapiens, UniProt P55072); assay: p97 ATPase activity, ATP consumption assay (Kinase-Glo), IC50 / counter screen; assay type: biochemical
T1 construct: 6xHis (C); made in house; host or cells: E. coli BL21 (DE3)
T1 sequence (P55072 whole entry): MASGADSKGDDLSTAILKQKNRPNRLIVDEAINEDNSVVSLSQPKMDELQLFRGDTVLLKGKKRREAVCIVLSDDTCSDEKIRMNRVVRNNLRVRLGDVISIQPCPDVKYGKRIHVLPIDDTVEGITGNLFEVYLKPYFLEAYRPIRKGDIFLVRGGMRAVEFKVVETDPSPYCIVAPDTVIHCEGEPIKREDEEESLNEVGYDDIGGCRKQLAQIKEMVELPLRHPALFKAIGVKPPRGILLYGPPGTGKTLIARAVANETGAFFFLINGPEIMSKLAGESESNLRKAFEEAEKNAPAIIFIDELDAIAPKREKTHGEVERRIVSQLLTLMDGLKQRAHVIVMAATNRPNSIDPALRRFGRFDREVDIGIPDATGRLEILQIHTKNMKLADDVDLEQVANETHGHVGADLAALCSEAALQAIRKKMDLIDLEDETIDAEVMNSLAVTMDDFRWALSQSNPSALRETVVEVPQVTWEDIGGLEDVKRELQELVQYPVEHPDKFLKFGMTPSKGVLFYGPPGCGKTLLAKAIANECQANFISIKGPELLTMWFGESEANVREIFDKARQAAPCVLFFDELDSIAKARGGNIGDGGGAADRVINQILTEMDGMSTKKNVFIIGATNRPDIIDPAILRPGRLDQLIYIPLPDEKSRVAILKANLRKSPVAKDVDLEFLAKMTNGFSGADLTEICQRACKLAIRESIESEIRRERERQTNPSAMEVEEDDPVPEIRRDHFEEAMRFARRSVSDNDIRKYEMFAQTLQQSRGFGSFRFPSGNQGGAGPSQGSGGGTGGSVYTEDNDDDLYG

[2] = molecular target: S. mansoni p97 (Smp_018240) (Schistosoma mansoni, UniProt G4M0P7); assay: biochemical; conditions: for Fold Selectivity: H. sapiens vs S. mansoni p97 IC50
S. mansoni p97 (Smp_018240), sequence (G4M0P7 entry or part of it): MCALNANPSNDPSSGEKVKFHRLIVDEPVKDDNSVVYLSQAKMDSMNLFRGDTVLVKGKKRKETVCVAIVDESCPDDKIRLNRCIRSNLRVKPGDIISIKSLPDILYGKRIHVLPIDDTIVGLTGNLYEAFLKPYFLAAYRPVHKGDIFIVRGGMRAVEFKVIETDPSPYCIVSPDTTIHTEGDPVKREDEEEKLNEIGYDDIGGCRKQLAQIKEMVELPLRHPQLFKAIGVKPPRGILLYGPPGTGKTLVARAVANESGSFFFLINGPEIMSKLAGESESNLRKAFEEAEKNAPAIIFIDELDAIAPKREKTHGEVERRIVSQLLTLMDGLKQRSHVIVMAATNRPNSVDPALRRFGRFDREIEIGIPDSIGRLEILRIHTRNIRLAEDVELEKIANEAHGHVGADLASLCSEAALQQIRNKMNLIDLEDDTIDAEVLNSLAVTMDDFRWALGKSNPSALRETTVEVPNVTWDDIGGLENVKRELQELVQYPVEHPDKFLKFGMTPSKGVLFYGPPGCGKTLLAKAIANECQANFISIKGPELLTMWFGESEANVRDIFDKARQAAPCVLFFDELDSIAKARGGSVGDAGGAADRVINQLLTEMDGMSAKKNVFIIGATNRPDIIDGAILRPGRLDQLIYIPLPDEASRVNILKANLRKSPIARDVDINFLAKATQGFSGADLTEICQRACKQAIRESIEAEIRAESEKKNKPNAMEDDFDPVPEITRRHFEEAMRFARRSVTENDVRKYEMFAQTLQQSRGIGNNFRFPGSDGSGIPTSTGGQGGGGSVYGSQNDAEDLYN
Protocol: E. coli BL21 (DE3) containing the desired plasmid were grown in LB medium containing […] kanamycin while shaking at 37 °C to an OD600 of 0.6–0.8. The temperature was reduced to 18°C and 0.8 mM isopropyl-beta-D-thiogalactopyranoside (IPTG) was added. The bacterial culture was harvested 16hr later by centrifugation. The resulting pellet was suspended in 60 mL lysis buffer/2L bacterial culture [20 mM Tris (pH 7.4), 300 mM NaCl, 5 mM MgCl2, 20 mM imidazole, 1% Triton X-100, 1 mg/mL lysozyme, 10% glycerol, 3 mM β-mercaptoethanol, 0.2 mM PMSF, and protease inhibitor tablet (Roche)]. […] The lysate was centrifuged at 40,000 × rpm for 35 min at 4°C. The resulting supernatant was incubated with Ni-NTA beads equilibrated to lysis buffer for 1 hr at 4°C before being loaded onto a gravity column. The bead bed was washed with wash buffer [20 mM Tris (pH 7.4), 500 mM NaCl, 5 mM MgCl2, 40 mM imidazole, 0.05% Triton X-100, 10% glycerol, 3 mM β-mercaptoethanol, 0.2 mM PMSF, 0.001 mg/mL Aprotinin, and 0.002 mg/mL Leupeptin], then eluted in the same buffer with 250 mM imidazole in wash buffer. Fractions containing p97 were concentrated using Pierce Protein Concentrators (100k MWCO) and loaded onto a gel-filtration column (Superdex 200PG) and eluted using SEC buffer [20 mM Tris (pH 7.4), 180 mM NaCl, 5 mM MgCl2, and 10% glycerol] at 0.5 mL/min flow rate on a BioRad NGC Chromatography System. Fractions corresponding to an apparent molecular weight of 500 – 600 kDa were collected and analyzed by 4–20% SDS/PAGE to evaluate purity. Concentration was determined using a BSA standard. Fractions containing purified protein were aliquoted, snap frozen in liquid nitrogen, and stored at −80 °C until use.
For manual ATP consumption assays, 1 μM p97 was incubated with 1% DMSO or inhibitor (1% DMSO final) in assay buffer [50 mM Tris (pH 7.5), 20 mM MgCl2, 1 mM EDTA, 0.5 mM tris(2-carboxyethyl)phosphine (TCEP)] for 5 minutes prior to the addition of 20 μM ATP in a 384-well plate for a total reaction volume of 10 μL, and a final concentration of 500nM enzyme and 10 μM ATP. The reaction was allowed to proceed for 50 minutes at room temperature before adding equivalent volume of Kinase-Glo Plus reagent (Promega), and a further incubation of 10 minutes in the dark.
IC50 values were calculated using GraphPad Prism.

adult S. mansoni worms [3] = assay: Treatment of adult S. mansoni worms in culture with inhibitors (attachment to tissue culture substrate, morphology; single 10 μM and dose-response EC50); assay type: cell-based, Schistosoma mansoni; conditions: for EC50: read-out: S. mansoni EC50; for effect on adult parasites: inhibitors of human targets
Protocol: Adult S. mansoni (NMRI strain) (6–7 weeks post-infection) worms were harvested from infected female Swiss Webster mice by hepatic portal vein perfusion using 37°C DMEM (Mediatech, Manassas, VA), 8% Horse Serum, and heparin.
Roughly 5 adult worm pairs were placed in 3mL Basch medium in a 12-well culture vessel, and incubated at 37°C, 5% CO2 for the length of the experiment. Compound was administered at D0, D1, and D2, media and drug refreshed every 24 hr. Worms were then allowed to remain in culture until D5, where a final assessment of worm attachment to tissue culture substate was made by light microscopy. Observations on movement and morphology were also recorded. A negative control (0.1% DMSO) and positive control (PZQ; 10 μM in 0.1% DMSO) were included in each experiment, and each experiment was repeated in triplicate for validation. For compounds that caused complete detachment in replicate experiments, the treatment was expanded to three concentrations (10 μM, 5 μM, and 1 μM) following the same treatment schedule and controls as detailed above. […] Each titration experiment was performed in triplicate according to the treatment regimen described above, using DMSO and PZQ as appropriate controls. Morphologies and motility were assessed by light microscopy, and dose-response curves were calculated using the primary readout of parasite attachment to tissue culture substrate in GraphPad Prism. […]
[…] Values were calculated using Prism.

adult S. mansoni worms [4] = system: adult S. mansoni worms; design: method as in PMID 32973031; conditions: schistosomes in vitro; cited from earlier work
[5] = recombinant enzyme, Kinase-Glo, Fig. 3D
[6] = recombinant enzyme, Kinase-Glo, Fig. 3D, read-out: S. mansoni (IC50)

Compound	accumulation of K48 polyubiquitinated proteins by western blot [1]	parasite death in vitro (adult S. mansoni worms [4])	IC50 (H. sapiens p97 (P55072); [5]) [nM]	IC50 [2, 6] [nM]	effect on adult parasites (adult S. mansoni worms [3]; 10 μM)	also measured
O=C(C#Cc1ccncc1)Nc1ccc2oc(-c3ccccn3)nc2c1 [Compound 739, N-(2-(pyridin-2-yl)benzo[d]oxazol-5-yl)-3-(pyridin-4-yl)propiolamide]	accumulation of K48 polyubiquitin moieties					GI50 (HepG2 cells; Homo sapiens, HepG2, 72 h): 850 nM; IC50 (HepG2 cells; Homo sapiens, HepG2, 72 h): 1200 nM; GI50 (HepG2 cells; Homo sapiens, HepG2, read-out: HepG2 GI50): 850 nM; IC50 (HepG2 cells; Homo sapiens, HepG2, read-out: HepG2 IC50): 1200 nM; IC50 (H. sapiens p97 (P55072); Hs p97, 100 μM – 1 nM, Suppl. Fig. 9C): 320 ± 26 nM; Fold Selectivity ([2]; Suppl. Fig. 9C): 2.1; IC50 ([2]; schistosome p97 enzyme, read-out: IC50): 150 nM; time to detachment of adult worms in culture (adult S. mansoni worms [3]; 10 μM): ≤ 24 h; EC50 (adult S. mansoni worms [3]; Schistosoma mansoni, adult parasites, fraction of worms attached, 72 hours of drug treatment, in culture until D5, 50 μM - 10 nM, Suppl. Fig. 9C): 1300 nM; effect on adult worms (adult S. mansoni worms [3]; benzoxazole propiolamide series, 10 μM, treated 72 hours, monitored until D5): death of the parasites
CC(C)C[C@H](NC(=O)[C@H](Cc1ccccc1)NC(=O)c1cnccn1)B(O)O [bortezomib]		killed				
COc1cccc2c(NCc3ccccc3)nc(-n3c(N)nc4ccccc43)nc12 [ML240, reference compound]	did not observe the same accumulation		330 ± 61	66 ± 9.7	killed parasites quickly	selectivity for the schistosome enzyme over its human counterpart [2]: ~ 5 fold
CC(C)N1CCN(CCNC2CCN(c3cccc(-c4cc5cc(F)ccc5[nH]4)c3)CC2)CC1 [UPCDC-30245, reference compound]	did not see significant increases in K48 abundance		970 ± 67	4100	effective	selectivity between schistosome and human p97 [2]: selective in favor of the human enzyme; also recorded: decreased potency
Cc1cc(OCc2nnc(SC3CCCC3)n2-c2cccnc2)ccc1-c1ccc(S(C)(=O)=O)cc1 [NMS-873]	accumulation of proteins targeted for proteasome-mediated degradation	sub-micromolar		230 ± 75		
c1ccc(CNc2nc(NCc3ccccc3)c3ccccc3n2)cc1 [DbeQ, reference compound]	did not observe the same accumulation		910 ± 390	12000	activity on the worms	
Cc1cc2c(C(N)=O)cccc2n1-c1nc2c(c(NCc3ccccc3)n1)COCC2 [CB-5083, reference compound]	accumulation of proteins targeted for proteasome-mediated degradation	sub-micromolar				GI50 (HepG2 cells; HepG2, 72 hr, 50% growth inhibition normalized to time = 0, Suppl. Fig. 11A, read-out: GI50): 310 nM; IC50 (HepG2 cells; HepG2, 72 hr, 50% growth inhibition relative to control, Suppl. Fig. 11A, read-out: IC50): 410 nM; GI50 (HepG2 cells; HepG2, Suppl. Fig. 11E, read-out: HepG2 GI50): 310 nM; IC50 (HepG2 cells; HepG2, Suppl. Fig. 11E, read-out: HepG2 IC50): 410 nM; Fold Selectivity ([2]; Suppl. Fig. 11D): 2.0; selectivity for the schistosome enzyme over its human counterpart ([2]; S. mansoni vs H. sapiens p97 IC50): ~ 2 fold; EC50 (adult S. mansoni worms [3]; worms, Suppl. Fig. 11E): 360 nM
CC1(C)C(N(O)C(=O)Nc2ccc(Cl)cc2)N(c2ccc(Cl)cc2)C(=O)N1CC(=O)N/N=C/C=C/c1ccc([N+](=O)[O-])o1 (stereo not shown) [Eeyarestatin I, reference compound]	did not see significant increases in K48 abundance				effective	
